Experiments:
HFD-fed mice = experiment: glucose tolerance test in HFD-fed mice; assay type: in vivo; conditions: 60 mg/kg daily oral gavage for 6 days; male mice fed HFD 5 weeks; 14 h fasted
Description: (§1) (FIG. 3A) Glucose tolerance test in 14 h fasted male mice fed a HFD for 5 weeks. […] At 1 day after drug treatment, glucose tolerance test was performed. Mean±SEM. (FIG. 3B) Insulin tolerance test of mice treated as described in FIG. 3A. Mean±SEM. […] The liver sections were stained with anti-IR (red) and DAPI (blue). Scale bars, 5 μm. (FIG. 3D) Quantification of the ratios of PM and IC IR signals of the livers in C (mean±SD; *p<0.0001). […] Cell lysates were blotted with the indicated antibodies.
The IR staining at the PM in liver sections from mice fed with HFD was weak, and insulin stimulation further reduced it and caused IR endocytosis (FIGS. 3C and D).
All animals were maintained in a specific antigen-free barrier facility with 12 h light/dark cycles (6 AM on and 6 PM off). Mice were fed a standard rodent chow (2016 Teklad Global 16% protein rodent diet, Harlan Laboratories). […] For glucose tolerance test, mice were fasted for 14 h, and their blood glucose levels (T=0) were measured with tail bleeding using a glucometer (AlphaTRAK®). […] Blood glucose levels were measured at 15, 30, 60, and 120 min after glucose injection. For insulin tolerance test, mice fasted for 4 h were injected intraperitoneally with recombinant human insulin (Eli Lilly) at 1 U/kg body weight, and their blood glucose levels were measured at 0, 15, 30 and 60 min after injection.

primary hepatocytes = experiment: insulin signaling in primary hepatocytes (quantitative Western blot); assay type: cell-based, mice; conditions: 10 μM for 2 h, then 100 nM insulin
Description: as §1
To examine the effect of SHP2 inhibition on insulin signaling in freshly isolated primary hepatocytes, the activating phosphorylation of IR (pY1189/1190), AKT (pT308), and ERK1/2 (pT202/Y204, pERK1/2) in the hepatocytes was monitored (FIG. 3E and FIG. 8B).
Primary hepatocytes were isolated from 2-month-old female mice with a standard two-step collagenase perfusion procedure. Cells were plated on collagen-coated dishes and incubated in attachment medium (Williams' E Medium supplemented with 5% (v/v) FBS, 10 nM insulin, 10 nM dexamethasone, and 1% (v/v) penicillin/streptomycin). After 2-4 h, the medium was changed to low-glucose DMEM supplemented with 5% (v/v) FBS, 10 nM dexamethasone, 10 nM insulin, 100 nM triiodothyronine, and 1% (v/v) penicillin/streptomycin.
Cells were incubated with the cell lysis buffer [50 mM HEPES (pH 7.4), 150 mM NaCl, 10% (v/v) Glycerol, 1% (v/v) Triton X-100, 1 mM EDTA, 100 mM sodium fluoride, 2 mM sodium orthovanadate, 20 mM sodium pyrophosphate, 0.5 mM dithiothreitol (DTT), 2 mM phenylmethylsulfonyl fluoride (PMSF)] supplemented with protease inhibitors (Roche®) and PhosSTOP™ (Roche®) on ice for 1 h. The cell lysates were cleared by centrifugation and incubated with antibody-conjugated beads. The beads were washed, and the bound proteins were eluted with the SDS sample buffer and analyzed by SDS-PAGE and Western blotting. For quantitative Western blots, anti-rabbit immunoglobulin G (IgG) (H+L) (Dylight 800 or 680 conjugates) and anti-mouse IgG (H+L) (Dylight 800 or 680 conjugates) (Cell Signaling) were used as secondary antibodies. […]

With `CC1(N)CCN(c2cnc(-c3cccc(Cl)c3Cl)c(N)n2)CC1` [SHP099] as the compound, how does the glucose tolerance (HFD-fed mice) read?
The glucose tolerance was “markedly increased glucose tolerance”.

What about the “activation of the MAPK pathway by insulin (pERK1/2)” value (primary hepatocytes) of the same compound?
The value was “inhibited the activation of the MAPK pathway by insulin”.

And the “insulin-triggered activating phosphorylation of AKT (pT308)” value (primary hepatocytes)?
The value was “significantly increased and prolonged”.

What about the “insulin-triggered activating phosphorylation of IR (pY1189/1190)” value (primary hepatocytes) of the same compound?
The value was “significantly increased and prolonged”.
